Earlier results on 2 substances are cited in patent publication EP0759941B1, “HETERODIMER POLYPEPTIDEIMMUNOGEN CARRIER COMPOSITION AND METHOD FOR THEIR USE” (S.P.I. SYNTHETIC PEPTIDES INCORPORATED, priority 1994, dated 1995).

This data set concerns primed (human) donors. The note with it: recognized by all primed (human) donors; cited from earlier work.

As to “TT3: tetanus toxoid residues 947-967; SEQ ID NO:14 (FNNFTVSFWLRVPKVSASHLE; UniProt P04958 947-967, looked up, fragment)”, the “immunogenicity (recognition by primed donors irrespective of MHC haplotypes)” value was “universally immunogenic”. With “TT2: tetanus toxoid residues 830-846; SEQ ID NO:12; T-cell antigen (QYIKANSKFIGITELKK; UniProt P04958 830-846, looked up, fragment) [tetanus toxoid residues 830-846; T-cell antigen]”, the “immunogenicity (recognition by primed donors irrespective of MHC haplotypes)” value was “universally immunogenic”.
